“And” between values parts separate entries of the source, which are not always exact repeats. Equal entries are not always repeated. Toxic doses and inconclusive results are not listed. No stated cut-off is given here; in the data, active means T/C of 150% or more; inactive means T/C below 125%.
System: L1210 leukemia ip in BDF1 mice, survival T/C
Experiment: NCI In Vivo Anticancer Drug Screen. Data for tumor model L1210 Leukemia (intraperitoneal) in B6D2F1 (BDF1) mice
Conditions: endpoint: mean survival time, higher = longer survival
Procedure, shortened: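 Tumor cells were implanted, animals were treated, and survival was followed. The result divides the treated measurement by the vehicle-control measurement.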

[1] = dose: 100.0 mg/kg/injection, schedule: Q04DX003 (ip), vehicle: saline with Tween-80
[2] = dose: 200.0 mg/kg/injection, schedule: Q04DX003 (ip), vehicle: saline with Tween-80
[3] = dose: 400.0 mg/kg/injection, schedule: Q04DX003 (ip), vehicle: saline with Tween-80
[4] = dose: 100.0 mg/kg/injection, schedule: Q04DX003 (ip), vehicle: Klucel (hydroxypropylcellulose) (HPC)
[5] = dose: 200.0 mg/kg/injection, schedule: Q04DX003 (ip), vehicle: Klucel (hydroxypropylcellulose) (HPC)
[6] = dose: 400.0 mg/kg/injection, schedule: Q04DX003 (ip), vehicle: Klucel (hydroxypropylcellulose) (HPC)
[7] = dose: 100.0 mg/kg/injection, schedule: Q01DX009 (ip), vehicle: saline
[8] = dose: 200.0 mg/kg/injection, schedule: Q01DX009 (ip), vehicle: saline
[9] = dose: 400.0 mg/kg/injection, schedule: Q01DX009 (ip), vehicle: saline
[10] = dose: 50.0 mg/kg/injection, schedule: Q01DX001 (ip), vehicle: saline
[11] = dose: 100.0 mg/kg/injection, schedule: Q01DX001 (ip), vehicle: saline
[12] = dose: 200.0 mg/kg/injection, schedule: Q01DX001 (ip), vehicle: saline
[13] = dose: 400.0 mg/kg/injection, schedule: Q01DX001 (ip), vehicle: saline
[14] = dose: 100.0 mg/kg/injection, schedule: Q01DX009 (ip), vehicle: saline with Tween-80
[15] = dose: 100.0 mg/kg/injection, schedule: Q01DX009 (ip), vehicle: Klucel (hydroxypropylcellulose) (HPC)
[16] = dose: 200.0 mg/kg/injection, schedule: Q01DX009 (ip), vehicle: Klucel (hydroxypropylcellulose) (HPC)
[17] = dose: 400.0 mg/kg/injection, schedule: Q01DX009 (ip), vehicle: Klucel (hydroxypropylcellulose) (HPC)
[18] = dose: 100.0 mg/kg/injection, schedule: Q04DX002 (ip), vehicle: Klucel (hydroxypropylcellulose) (HPC)
[19] = dose: 200.0 mg/kg/injection, schedule: Q04DX002 (ip), vehicle: Klucel (hydroxypropylcellulose) (HPC)

Measured: T/C

CCCC(NC(=O)C(C)NC(=O)OCc1ccccc1)C(=O)OC (centres undefined)
inactive: [1] 93 % of control | [2] 93 % of control | [3] 86 % of control

CCCCCCCCCCCCCCCC[N+]1(C)CCSCC1
inactive: dose: 0.78 mg/kg/injection, schedule: Q01DX009 (ip), vehicle: saline 104 % of control | dose: 1.56 mg/kg/injection, schedule: Q01DX009 (ip), vehicle: saline 111 % of control | dose: 3.13 mg/kg/injection, schedule: Q01DX009 (ip), vehicle: saline 114 % of control | dose: 6.25 mg/kg/injection, schedule: Q01DX009 (ip), vehicle: saline 104 % of control

NC(Cn1cc(N(CCCl)CCCl)c(=O)[nH]c1=O)C(=O)O (centres undefined)
inactive: dose: 2.5 mg/kg/injection, schedule: Q01DX009 (ip), vehicle: water 114 % of control | dose: 4.0 mg/kg/injection, schedule: Q01DX009 (ip), vehicle: saline 108 % of control | dose: 5.0 mg/kg/injection, schedule: Q01DX009 (ip), vehicle: water 122 % of control | dose: 6.0 mg/kg/injection, schedule: Q01DX009 (ip), vehicle: saline 113 % of control | dose: 8.0 mg/kg/injection, schedule: Q01DX009 (ip), vehicle: saline 103 % of control | dose: 9.0 mg/kg/injection, schedule: Q01DX009 (ip), vehicle: saline 111 % of control | dose: 14.0 mg/kg/injection, schedule: Q01DX009 (ip), vehicle: saline 120 % of control | dose: 16.0 mg/kg/injection, schedule: Q01DX009 (ip), vehicle: saline 118 % of control | dose: 19.0 mg/kg/injection, schedule: Q01DX001 (ip), vehicle: saline 97 % of control | dose: 20.0 mg/kg/injection, schedule: Q01DX001 (ip), vehicle: saline 121 % of control | dose: 30.0 mg/kg/injection, schedule: Q01DX001 (ip), vehicle: saline 115 % of control | dose: 33.0 mg/kg/injection, schedule: Q01DX009 (ip), vehicle: saline 98 % of control | dose: 37.5 mg/kg/injection, schedule: Q01DX001 (ip), vehicle: saline 114 % of control | dose: 45.0 mg/kg/injection, schedule: Q01DX009 (ip), vehicle: saline 101 % of control | dose: 75.0 mg/kg/injection, schedule: Q01DX009 (ip), vehicle: saline 103 % of control

OCCN=C1c2cc(Cl)ccc2-c2c(Cl)cc(Cl)cc21
inactive: [4] 103 % of control | [5] 97 % of control | [6] 87 % of control

CCOC(=O)C(CO)(CO)C(=O)OCC
inactive: [7] 106 % of control | [8] 92 % of control | [9] 100 % of control

C=CC(CO)N1CC1 (centres undefined)
inactive: dose: 25.0 mg/kg/injection, schedule: Q01DX001 (ip), vehicle: carboxymethylcellulose (CMC) 101 % of control | dose: 50.0 mg/kg/injection, schedule: Q01DX001 (ip), vehicle: carboxymethylcellulose (CMC) 103 % of control

O=P(CCC(F)(F)C(F)(F)C(F)(F)C(F)(F)C(F)(F)C(F)(F)C(F)(F)F)(N1CC1)N1CC1
inactive: dose: 75.0 mg/kg/injection, schedule: Q01DX001 (ip), vehicle: carboxymethylcellulose (CMC) 108 % of control

CCCOP(=O)(OCCC)C(OC(=O)C(C)(C)Br)=C(C)C
inactive: [1] 100 % of control | [2] 100 % of control | [3] 100 % of control

CC(=O)c1cc(I)c(O)c2ncccc12
inactive: dose: 6.25 mg/kg/injection, schedule: Q01DX009 (ip), vehicle: saline with Tween-80 91 % of control | dose: 6.25 mg/kg/injection, schedule: Q04DX003 (ip), vehicle: saline with Tween-80 95 % of control | dose: 12.5 mg/kg/injection, schedule: Q01DX009 (ip), vehicle: saline with Tween-80 91 % of control | dose: 12.5 mg/kg/injection, schedule: Q04DX003 (ip), vehicle: saline with Tween-80 106 % of control | dose: 25.0 mg/kg/injection, schedule: Q01DX009 (ip), vehicle: saline with Tween-80 89 % of control | dose: 25.0 mg/kg/injection, schedule: Q04DX003 (ip), vehicle: saline with Tween-80 116 % of control and 91 % of control | [1] 107 % of control

COc1ccc(/C=C/C(=O)c2ccc3cc(OC)c(OC)cc3c2)cc1OC
inactive: dose: 100.0 mg/kg/injection, schedule: Q04DX003 (ip), vehicle: saline 91 % of control | dose: 200.0 mg/kg/injection, schedule: Q04DX003 (ip), vehicle: saline 89 % of control | dose: 400.0 mg/kg/injection, schedule: Q04DX003 (ip), vehicle: saline 87 % of control

O=C1C=C(O/C=C/C(C(F)(F)F)C(F)(F)F)C(=O)c2ccccc21
inactive: dose: 6.25 mg/kg/injection, schedule: Q01DX001 (ip), vehicle: Klucel (hydroxypropylcellulose) (HPC) 100 % of control | dose: 6.25 mg/kg/injection, schedule: Q01DX009 (ip), vehicle: Klucel (hydroxypropylcellulose) (HPC) 91 % of control | dose: 12.5 mg/kg/injection, schedule: Q01DX001 (ip), vehicle: Klucel (hydroxypropylcellulose) (HPC) 101 % of control | dose: 12.5 mg/kg/injection, schedule: Q01DX009 (ip), vehicle: Klucel (hydroxypropylcellulose) (HPC) 95 % of control | dose: 25.0 mg/kg/injection, schedule: Q01DX001 (ip), vehicle: Klucel (hydroxypropylcellulose) (HPC) 103 % of control | dose: 50.0 mg/kg/injection, schedule: Q01DX001 (ip), vehicle: Klucel (hydroxypropylcellulose) (HPC) 101 % of control | dose: 75.0 mg/kg/injection, schedule: Q01DX001 (ip), vehicle: Klucel (hydroxypropylcellulose) (HPC) 96 % of control

CN(C)C(=O)NCc1ccco1
inactive: dose: 12.5 mg/kg/injection, schedule: Q04DX003 (ip), vehicle: saline 97 % of control | dose: 25.0 mg/kg/injection, schedule: Q04DX003 (ip), vehicle: saline 95 % of control | dose: 50.0 mg/kg/injection, schedule: Q04DX003 (ip), vehicle: saline 101 % of control

O=C(Nc1cccc(Cl)c1)C1CCCC1=Nc1cccc(Cl)c1 (centres undefined)
inactive: [10] 103 % of control | [11] 100 % of control | [12] 103 % of control | [13] 94 % of control

OC(OCCCCCCOC(O)C(Cl)(Cl)Cl)C(Cl)(Cl)Cl (centres undefined)
inactive: [14] 93 % of control | [1] 98 % of control | dose: 200.0 mg/kg/injection, schedule: Q01DX009 (ip), vehicle: saline with Tween-80 98 % of control | [2] 104 % of control | dose: 400.0 mg/kg/injection, schedule: Q01DX009 (ip), vehicle: saline with Tween-80 106 % of control | [3] 98 % of control

Cc1cc(Cl)cc(C)c1OC(=O)Nc1ccccc1C(F)(F)F
inactive: [7] 98 % of control | [8] 91 % of control | [9] 112 % of control

CC(=O)OCC1C2c3ccccc3C(c3ccccc32)C1CBr (centres undefined)
inactive: [15] 91 % of control | [4] 93 % of control | [16] 94 % of control | [5] 94 % of control | [17] 88 % of control | [6] 98 % of control

CSc1ccc(OC(=O)NC2CCCCC2)cc1C
inactive: [15] 92 % of control | [4] 93 % of control | [16] 97 % of control | [5] 111 % of control | [17] 93 % of control | [6] 95 % of control

CC(=O)OC1CCC2(C)C(CCC3C2CCC2(C)C(C(C)C(=O)O)CCC32)C1 (centres undefined)
inactive: [18] 100 % of control | [1] 104 % of control | [19] 97 % of control | [2] 98 % of control | dose: 400.0 mg/kg/injection, schedule: Q04DX002 (ip), vehicle: Klucel (hydroxypropylcellulose) (HPC) 94 % of control | [3] 93 % of control

CC1=C(C)CC(C(Cl)(Cl)Cl)C([N+](=O)[O-])C1 (centres undefined)
inactive: [14] 96 % of control

Oc1ccc(Nc2ccnc3cc(Cl)ccc23)cc1CN(CCCl)CCCl
inactive: dose: 5.0 mg/kg/injection, schedule: Q01DX001 (ip), vehicle: saline 109 % of control | dose: 10.0 mg/kg/injection, schedule: Q01DX001 (ip), vehicle: saline 109 % of control

COCC1CCCCC1O (centres undefined)
inactive: [10] 101 % of control | [11] 95 % of control | [12] 101 % of control | [13] 98 % of control

NNC(=O)CNc1ccc(Br)cc1F
inactive: [18] 104 % of control | [19] 115 % of control

Reference: PubChem BioAssay AID248 (DTP/NCI, 2004)
